From US20110028566A1, “COMPOSITIONS AND PRODUCTS CONTAINING CYCLOALIPHATIC DIOL ANTIMICROBIAL AGENTS AND METHODS OF USING THE COMPOSITIONS AND PRODUCTS” (EASTMAN CHEMICAL COMPANY, priority 2009, published 2011)

Key:
Assay in all cases: Microbial challenge testing in BPW
Format in all cases: cell-based
Proteus vulgaris = settings: for Grade code, P. vulgaris, 3 Days / Grade code, P. vulgaris, 13 Days / Grade code, P. vulgaris, 30 Day: BPW, w/v % in label, average of replicates
Method in brief: (§1)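 Test materials, dosed as w/v % in BPW pH 7.0 with 1% dextrose, were challenged with bacteria at 10^5–10^6 cfu/mL starting count. Inocula came from 96 h or longer TSB-dextrose cultures, and counts were checked by PCA spread-plating. Samples were incubated 14 days at 35 °C, then at ambient temperature.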

Aeromonas sp. = settings: for Grade code, Aeromonas sp, 3 Days / Grade code, Aeromonas sp, 14 Days / Grade code, Aeromonas sp, 30 Days: BPW, w/v % in label, average of replicates
Method in brief: as §1

Escherichia coli = tested on: Escherichia coli
Method in brief: as §1

[1] = 3 days incubation, listed as 0.5% AB
[2] = 3 days incubation, listed as 1.25% AB
[3] = 3 days incubation, listed as 2.5% AB
[4] = 30 days incubation, listed as 0.5% AB
[5] = 30 days incubation, listed as 1.25% AB
[6] = 30 days incubation, listed as 2.5% AB

## OCC1CCC(CO)CC1 (centres unmarked) [1,4-CHDM, 1,4-cyclohexanedimethanol]
Proteus vulgaris; 1.25%, 13 days incubation
  Grade code P. vulqaris: 2 (52 to 100 colonies counted (thus 520 to 1000 cfu/mL))
Proteus vulgaris; 1.25%, 30 days incubation
  Grade code P. vulqaris: 0 (No growth detected or <1 colony (thus <10 cfu/mL))
Proteus vulgaris; 2.5%, 3 days incubation
  Grade code P. vulqaris: 1 (1 to 51 colonies counted (thus 10 to 510 cfu/mL))
Proteus vulgaris; 2.5%, 13 days incubation
  Grade code P. vulqaris: 0 (No growth detected or <1 colony (thus <10 cfu/mL))
Proteus vulgaris; 2.5%, 30 days incubation
  Grade code P. vulqaris: 0 (No growth detected or <1 colony (thus <10 cfu/mL))
Proteus vulgaris; [1]
  Grade code, P. vulgaris, 3 Days: 4 (1001 to 10,000 colonies (thus 10,000 cfu/mL to 100,000 cfu/mL))
Proteus vulgaris; [2]
  Grade code, P. vulgaris, 3 Days: 3 (101 to 1000 colonies (thus 1000 to 10,000 cfu/mL))
Proteus vulgaris; [3]
  Grade code, P. vulgaris, 3 Days: 1 (1 to 51 colonies counted (thus 10 to 510 cfu/mL))
Proteus vulgaris; 13 days incubation, listed as 0.5% AB
  Grade code, P. vulgaris, 13 Days: 4 (1001 to 10,000 colonies (thus 10,000 cfu/mL to 100,000 cfu/mL))
Proteus vulgaris; 13 days incubation, listed as 1.25% AB
  Grade code, P. vulgaris, 13 Days: 2 (52 to 100 colonies counted (thus 520 to 1000 cfu/mL))
Proteus vulgaris; 13 days incubation, listed as 2.5% AB
  Grade code, P. vulgaris, 13 Days: 0 (No growth detected or <1 colony (thus <10 cfu/mL))
Proteus vulgaris; [4]
  Grade code, P. vulgaris, 30 Day: 4 (1001 to 10,000 colonies (thus 10,000 cfu/mL to 100,000 cfu/mL))
Proteus vulgaris; [5]
  Grade code, P. vulgaris, 30 Day: 0 (No growth detected or <1 colony (thus <10 cfu/mL))
Proteus vulgaris; [6]
  Grade code, P. vulgaris, 30 Day: 0 (No growth detected or <1 colony (thus <10 cfu/mL))
Aeromonas sp.; 0.5%, 3 days incubation
  Grade code Aeromonas sp: 5 (More than 10,000 colonies estimated (thus >100,000 cfu/mL))
Aeromonas sp.; 0.5%, 14 days incubation
  Grade code Aeromonas sp: 4 (1001 to 10,000 colonies (thus 10,000 cfu/mL to 100,000 cfu/mL))
Aeromonas sp.; 0.5%, 30 days incubation
  Grade code Aeromonas sp: 4 (1001 to 10,000 colonies (thus 10,000 cfu/mL to 100,000 cfu/mL))
Aeromonas sp.; 1.25%, 3 days incubation
  Grade code Aeromonas sp: 4 (1001 to 10,000 colonies (thus 10,000 cfu/mL to 100,000 cfu/mL))
Aeromonas sp.; 1.25%, 14 days incubation
  Grade code Aeromonas sp: 3 (101 to 1000 colonies (thus 1000 to 10,000 cfu/mL))
Aeromonas sp.; 1.25%, 30 days incubation
  Grade code Aeromonas sp: 2 (52 to 100 colonies counted (thus 520 to 1000 cfu/mL))
Aeromonas sp.; 2.5%, 3 days incubation
  Grade code Aeromonas sp: 3 (101 to 1000 colonies (thus 1000 to 10,000 cfu/mL))
Aeromonas sp.; 2.5%, 14 days incubation
  Grade code Aeromonas sp: 1 (1 to 51 colonies counted (thus 10 to 510 cfu/mL))
Aeromonas sp.; 2.5%, 30 days incubation
  Grade code Aeromonas sp: 0 (No growth detected or <1 colony (thus <10 cfu/mL))
Aeromonas sp.; [1]
  Grade code, Aeromonas sp, 3 Days: 5 (More than 10,000 colonies estimated (thus >100,000 cfu/mL))
Aeromonas sp.; [2]
  Grade code, Aeromonas sp, 3 Days: 4 (1001 to 10,000 colonies (thus 10,000 cfu/mL to 100,000 cfu/mL))
Aeromonas sp.; [3]
  Grade code, Aeromonas sp, 3 Days: 3 (101 to 1000 colonies (thus 1000 to 10,000 cfu/mL))
Aeromonas sp.; 14 days incubation, listed as 0.5% AB
  Grade code, Aeromonas sp, 14 Days: 4 (1001 to 10,000 colonies (thus 10,000 cfu/mL to 100,000 cfu/mL))
Aeromonas sp.; 14 days incubation, listed as 1.25% AB
  Grade code, Aeromonas sp, 14 Days: 3 (101 to 1000 colonies (thus 1000 to 10,000 cfu/mL))
Aeromonas sp.; 14 days incubation, listed as 2.5% AB
  Grade code, Aeromonas sp, 14 Days: 1 (1 to 51 colonies counted (thus 10 to 510 cfu/mL))
Aeromonas sp.; [4]
  Grade code, Aeromonas sp, 30 Days: 4 (1001 to 10,000 colonies (thus 10,000 cfu/mL to 100,000 cfu/mL))
Aeromonas sp.; [5]
  Grade code, Aeromonas sp, 30 Days: 2 (52 to 100 colonies counted (thus 520 to 1000 cfu/mL))
Aeromonas sp.; [6]
  Grade code, Aeromonas sp, 30 Days: 0 (No growth detected or <1 colony (thus <10 cfu/mL))
Escherichia coli; 0.5%, 3 days incubation
  Grade code E. coli: 5 (More than 10,000 colonies estimated (thus >100,000 cfu/mL))
Escherichia coli; 0.5%, 14 days incubation
  Grade code E. coli: 4 (1001 to 10,000 colonies (thus 10,000 cfu/mL to 100,000 cfu/mL))
Escherichia coli; 0.5%, 30 days incubation
  Grade code E. coli: 4 (1001 to 10,000 colonies (thus 10,000 cfu/mL to 100,000 cfu/mL))
Escherichia coli; 1.25%, 3 days incubation
  Grade code E. coli: 4 (1001 to 10,000 colonies (thus 10,000 cfu/mL to 100,000 cfu/mL))
Escherichia coli; 1.25%, 14 days incubation
  Grade code E. coli: 4 (1001 to 10,000 colonies (thus 10,000 cfu/mL to 100,000 cfu/mL))
Escherichia coli; 1.25%, 30 days incubation
  Grade code E. coli: 4 (1001 to 10,000 colonies (thus 10,000 cfu/mL to 100,000 cfu/mL))
Escherichia coli; 2.5%, 3 days incubation
  Grade code E. coli: 3 (101 to 1000 colonies (thus 1000 to 10,000 cfu/mL))
Escherichia coli; 2.5%, 14 days incubation
  Grade code E. coli: 2 (52 to 100 colonies counted (thus 520 to 1000 cfu/mL))
Escherichia coli; 2.5%, 30 days incubation
  Grade code E. coli: 0 (No growth detected or <1 colony (thus <10 cfu/mL))
